From patent publication US11110082B2, “Tyrosine kinase inhibitors” (Rigel Pharmaceuticals, Inc., priority 2016, dated 2021)

The molecules below were run against T1, MerTK (Homo sapiens, UniProt Q12866) (assay: PAKT HTRF-HUVEC assay (pAkt Ser473 HTRF after anti-human MerTK-XL stimulation)). Details: HUVEC cells, 1 hour compound, stimulated with anti-human MerTK-XL 1 ug/mL for 10 minutes, read-out: inhibition of MerTK.
T1 construct: Seed HUVECs (10K cells/well) in EBM-2 complete media; host or cells: HUVEC (primary human umbilical vein endothelial cells)
T1 sequence (Q12866 21-999): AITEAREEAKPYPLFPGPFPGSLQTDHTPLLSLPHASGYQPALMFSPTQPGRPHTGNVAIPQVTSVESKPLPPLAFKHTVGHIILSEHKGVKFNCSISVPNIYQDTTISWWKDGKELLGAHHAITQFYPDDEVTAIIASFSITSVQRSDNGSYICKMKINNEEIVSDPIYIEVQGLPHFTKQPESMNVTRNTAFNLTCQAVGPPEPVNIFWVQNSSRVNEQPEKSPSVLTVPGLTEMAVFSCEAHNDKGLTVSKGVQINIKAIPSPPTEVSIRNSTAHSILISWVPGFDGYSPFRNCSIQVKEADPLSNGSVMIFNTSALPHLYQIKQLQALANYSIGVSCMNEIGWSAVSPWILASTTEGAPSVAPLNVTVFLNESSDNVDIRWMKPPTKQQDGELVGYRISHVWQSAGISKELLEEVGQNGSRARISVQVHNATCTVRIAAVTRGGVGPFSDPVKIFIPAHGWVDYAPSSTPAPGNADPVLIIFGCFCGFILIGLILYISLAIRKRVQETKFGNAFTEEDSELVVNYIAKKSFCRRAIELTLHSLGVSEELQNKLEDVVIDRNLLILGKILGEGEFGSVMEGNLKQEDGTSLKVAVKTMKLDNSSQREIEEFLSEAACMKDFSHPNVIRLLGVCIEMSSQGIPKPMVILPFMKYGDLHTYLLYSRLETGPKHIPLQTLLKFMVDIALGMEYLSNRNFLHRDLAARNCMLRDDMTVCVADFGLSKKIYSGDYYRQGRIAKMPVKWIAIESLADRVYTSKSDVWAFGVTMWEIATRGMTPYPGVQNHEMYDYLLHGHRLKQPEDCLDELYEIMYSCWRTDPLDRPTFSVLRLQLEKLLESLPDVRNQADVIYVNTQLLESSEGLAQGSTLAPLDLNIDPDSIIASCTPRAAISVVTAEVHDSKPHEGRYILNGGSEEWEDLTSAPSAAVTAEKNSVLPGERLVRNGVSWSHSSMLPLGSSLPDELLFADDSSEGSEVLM
Type: cell-based
Outline: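 HUVECs starved 3-4 h in basal medium, preincubated with compound 1 h at 37° C, then stimulated 10 min with cross-linked anti-human MerTK antibody (final 1 ug/mL). Lysates read for pAkt (Ser473) by HTRF; EC50 from curve fitting.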

Compound	EC50 [nM]
O=c1c2cc(N3CCn4ncnc4C3)ccc2c2cnc(NCC3CC3)nc2n1[C@H]1CC[C@H](O)CC1 [Compound 101, trans-3-((Cyclopropylmethyl)amino)-8-(5,6-dihydro-[1,2,4]triazolo[1,5-a]pyrazin-7(8H)-yl)-5-(4-hydroxycyclohexyl)pyrimido [4,5-c]isoquinolin-6(5H)-one]	296
O=c1c2cc(N3CCN(CC(F)(F)F)CC3)ccc2c2cnc(NCC3CC3)nc2n1[C@H]1CC[C@H](O)CC1 [Compound 104, trans-3-((Cyclopropylmethyl)amino)-5-(4-hydroxycyclohexyl)-8-(4-(2,2,2-trifluoroethyl)piperazin-1-yl)pyrimido[4,5-c]isoquinolin-6(5H)-one]	289
O=c1c2cc(N3CCN(CC(F)F)CC3)ccc2c2cnc(NCC3CC3)nc2n1[C@H]1CC[C@H](O)CC1 [Compound 105, trans-3-((Cyclopropylmethyl)amino)-8-(4-(2,2-difluoroethyl)piperazin-1-yl)-5-(4-hydroxycyclohexyl)pyrimido [4,5-c]isoquinolin-6(5H)-one]	354
O=c1c2cc(N3CCN(C4CC4)CC3)ccc2c2cnc(NCC3CC3)nc2n1[C@H]1CC[C@H](O)CC1 [Compound 110, trans-3-((Cyclopropylmethyl)amino)-8-(4-cyclopropylpiperazin-1-yl)-5-(4-hydroxycyclohexyl)pyrimido [4,5-c]isoquinolin-6(5H)-one]	483
O=c1c2cc(N3CCN(C4COC4)CC3)ccc2c2cnc(NCC3CC3)nc2n1[C@H]1CC[C@H](O)CC1 [Compound 111, trans-3-((Cyclopropylmethyl)amino)-5-(4-hydroxycyclohexyl)-8-(4-(oxetan-3-yl)piperazin-1-yl)pyrimido[4,5-c]isoquinolin-6(5H)-one]	380
CCCCNc1ncc2c3ccccc3c(=O)n(C3CC4(CC(O)C4)C3)c2n1 (stereo not drawn) [Compound 112, 3-(Butylamino)-5-(6-hydroxyspiro[3,3]heptan-2-yl)pyrimido[4,5-c]isoquinolin-6(5H)-one]	472
O=c1c2ccccc2c2cnc(NCC3CC3)nc2n1[C@H]1CC[C@H](O)CC1 [Compound 114, trans-3-((Cyclopropylmethyl)amino)-5-(4-hydroxycyclohexyl)pyrimido [4,5-c]isoquinolin-6(5H)-one]	743
CCCCNc1ncc2c3ccccc3c(=O)n([C@H]3CC[C@@](C)(O)CC3)c2n1 [Compound 115, cis-3-(Butylamino)-5-(4-hydroxy-4-methylcyclohexyl)pyrimido [4,5-c]isoquinolin-6(5H)-one]	554
CCC1(CNc2ncc3c4ccccc4c(=O)n([C@H]4CC[C@H](O)CC4)c3n2)CCC1 [Compound 116, trans-3-(((1-Ethylcyclobutyl)methyl)amino)-5-(4-hydroxycyclohexyl)pyrimido [4,5-c]isoquinolin-6(5H)-one]	4620
O=c1c2ccccc2c2cnc(NCC3CCC3)nc2n1[C@H]1CC[C@H](O)CC1 [Compound 117, trans-3-((Cyclobutylmethyl)amino)-5-(4-hydroxycyclohexyl)pyrimido [4,5-c]isoquinolin-6(5H)-one]	326
CCC(F)(F)CNc1ncc2c3ccccc3c(=O)n([C@H]3CC[C@H](O)CC3)c2n1 [Compound 119, trans-3-((2,2-difluorobutyl)amino)-5-(4-hydroxycyclohexyl)pyrimido [4,5-c]isoquinolin-6(5H)-one]	15800
O=c1c2ccccc2c2cnc(NCCC3CC3)nc2n1[C@H]1CC[C@H](O)CC1 [Compound 120, trans-3-((2-Cyclopropylethyl)amino)-5-(4-hydroxycyclohexyl)pyrimido [4,5-c]isoquinolin-6(5H)-one]	352
CC1(O)CCC(n2c(=O)c3ccccc3c3cnc(NCC4CC4)nc32)CC1 (stereo not drawn) [Compound 121, trans-3-((Cyclopropylmethyl)amino)-5-(4-hydroxy-4-methylcyclohexyl)pyrimido[4,5-c]isoquinolin-6(5H)-one]	620

The next molecules have a lower EC50 than those just listed; values first:

EC50 [nM]	Compound
170	O=c1c2cc(N3CCNCC3)ccc2c2cnc(NCC3CC3)nc2n1[C@H]1CC[C@H](O)CC1 [Compound 108, trans-3-((Cyclopropylmethyl)amino)-5-(4-hydroxycyclohexyl)-8-(piperazin-1-yl)pyrimido[4,5-c]isoquinolin-6(5H)-one]
165	C[C@]1(O)CC[C@H](n2c(=O)c3ccccc3c3cnc(NCCC4CC4)nc32)CC1 [Compound 122, trans-3-((2-Cyclopropylethyl)amino)-5-(4-hydroxy-4-methylcyclohexyl)pyrimido [4,5-c]isoquinolin-6(5H)-one]
129	O=c1c2cc(N3CCN4CCC[C@@H]4C3)ccc2c2cnc(NCC3CC3)nc2n1[C@H]1CC[C@H](O)CC1 [Compound 103, trans-3-((Cyclopropylmethyl)amino)-8-((R)-hexahydropyrrolo[1,2-a]pyrazin-2(1H)-yl)-5-(4-hydroxycyclohexyl)pyrimido [4,5-c]isoquinolin-6(5H)-one]
126	CCCCNc1ncc2c3ccc(CN4CCN(C)CC4)cc3c(=O)n([C@H]3CC[C@H](C#N)CC3)c2n1 [Compound 128]
123	O=c1c2cc(N3CCN4CCC[C@H]4C3)ccc2c2cnc(NCC3CC3)nc2n1[C@H]1CC[C@H](O)CC1 [Compound 102, trans-3-((Cyclopropylmethyl)amino)-8-((S)-hexahydropyrrolo[1,2-a]pyrazin-2(1H)-yl)-5-(4-hydroxycyclohexyl)pyrimido [4,5-c]isoquinolin-6(5H)-one]
97.5	CC(C)N1CCN(c2ccc3c(c2)c(=O)n([C@H]2CC[C@H](O)CC2)c2nc(NCC4CC4)ncc32)CC1 [Compound 109, trans-3-((Cyclopropylmethyl)amino)-5-(4-hydroxycyclohexyl)-8-(4-isopropylpiperazin-1-yl)pyrimido[4,5-c]isoquinolin-6(5H)-one]
89.1	CCCCNc1ncc2c3ccc(CN4CCN(C)CC4)cc3c(=O)n([C@H]3CCC[C@H](O)CCC3)c2n1 [Compound 127, 3-(Butylamino)-5-((1r,5r)-5-hydroxycyclooctyl)-8-((4-methylpiperazin-1-yl)methyl)pyrimido[4,5-c]isoquinolin-6(5H)-one]
76.5	C[C@]1(O)CC[C@H](n2c(=O)c3ccccc3c3cnc(NCC4CCC4)nc32)CC1 [Compound 123, trans-3-((Cyclobutylmethyl)amino)-5-(4-hydroxy-4-methylcyclohexyl)pyrimido [4,5-c]isoquinolin-6(5H)-one]
70.4	C[C@@H]1CN(c2ccc3c(c2)c(=O)n([C@H]2CC[C@H](O)CC2)c2nc(NCC4CC4)ncc32)CCN1C [Compound 106, trans-3-((Cyclopropylmethyl)amino)-8-((R)-3,4-dimethylpiperazin-1-yl)-5-(4-hydroxycyclohexyl)pyrimido [4,5-c]isoquinolin-6(5H)-one]
58.2	C[C@@H]1CN(c2ccc3c(c2)c(=O)n([C@H]2CC[C@H](O)CC2)c2nc(NCC4CC4)ncc32)[C@@H](C)CN1C [Compound 107, trans-3-((Cyclopropylmethyl)amino)-5-(4-hydroxycyclohexyl)-8-((2S,5R)-2,4,5-trimethylpiperazin-1-yl)pyrimido[4,5-c]isoquinolin-6(5H)-one]
51.2	CC(C)CNc1ncc2c3ccc(CN4CCN(C)CC4)cc3c(=O)n([C@H]3CC[C@H](O)CC3)c2n1 [Compound 130, trans-5-(4-hydroxycyclohexyl)-3-(isobutylamino)-8-((4-methylpiperazin-1-yl)methyl)pyrimido[4,5-c]isoquinolin-6(5H)-one]
45.9	CC(C)CCNc1ncc2c3ccc(CN4CCN(C)CC4)cc3c(=O)n([C@H]3CC[C@H](O)CC3)c2n1 [Compound 129]
44.9	CCCCNc1ncc2c3ccccc3c(=O)n(C3CCC(C)(O)CC3)c2n1 (stereo not drawn) [Compound 113, trans-3-(Butylamino)-5-(4-hydroxy-4-methylcyclohexyl)pyrimido [4,5-c]isoquinolin-6(5H)-one]
36.2	O=c1c2cc(CN3CCN(c4ccncc4)CC3)ccc2c2cnc(NCC3CC3)nc2n1[C@H]1CC[C@H](O)CC1 [Compound 124, trans-3-((Cyclopropylmethyl)amino)-5-(4-hydroxycyclohexyl)-8-((4-(pyridin-4-yl)piperazin-1-yl)methyl)pyrimido[4,5-c]isoquinolin-6(5H)-one]
